PubChem BioAssay (NCI)
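Cells were grown in 96-well plates and exposed to each compound for 48 hours at five concentrations; endpoints were interpolated linearly between bracketing concentrations, or set to the highest concentration if not reached. TGI: concentration producing complete growth inhibition.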

Legend:
Assay in all cases: growth of human tumour cells (NCI), 48 h
[1] = test system: HCT-15 colon
[2] = test system: SW-620 colon
[3] = test system: MCF7 breast
[4] = test system: SK-OV-3 ovarian
[5] = test system: IGROV1 ovarian
[6] = test system: UACC-257 melanoma
[7] = test system: SNB-19 CNS
[8] = test system: OVCAR-5 ovarian
[9] = test system: HOP-92 NSCLC
[10] = test system: HS 578T breast
[11] = test system: SK-MEL-2 melanoma
[12] = test system: A549 NSCLC
[13] = test system: BT-549 breast
[14] = test system: K-562 leukemia
[15] = test system: EKVX NSCLC
[16] = test system: T-47D breast
[17] = test system: KM12 colon
[18] = test system: UO-31 renal
[19] = test system: SR leukemia
[20] = test system: MDA-MB-231 breast
[21] = test system: COLO 205 colon
[22] = test system: LOX IMVI melanoma
[23] = test system: NCI-H460 lung
[24] = test system: RPMI-8226 leukemia
[25] = test system: SF-539 CNS
[26] = test system: HL-60(TB) leukemia
[27] = test system: NCI-H226 lung
[28] = test system: TK-10 renal
[29] = test system: HCC-2998 colon
[30] = test system: SNB-75 CNS
[31] = test system: MOLT-4 leukemia
[32] = test system: CCRF-CEM leukemia
[33] = test system: OVCAR-3 ovarian
[34] = test system: OVCAR-4 ovarian
[35] = test system: HCT-116 colon
[36] = test system: SF-268 CNS
[37] = test system: NCI-H23 lung
[38] = test system: CAKI-1 renal
[39] = test system: OVCAR-8 ovarian
[40] = test system: 786-0 renal
[41] = test system: NCI-H522 lung
[42] = test system: MDA-N
[43] = test system: DU-145 prostate
[44] = test system: U251 CNS
[45] = test system: SK-MEL-28 melanoma
[46] = test system: UACC-62 melanoma
[47] = test system: SK-MEL-5 melanoma
[48] = test system: ACHN renal
[49] = test system: SF-295 CNS
[50] = test system: HT29 colon
[51] = test system: SN12C renal
[52] = test system: MALME-3M melanoma
[53] = test system: RXF 393 renal
[54] = test system: M14 melanoma
[55] = test system: HOP-62 NSCLC
[56] = test system: PC-3 prostate
[57] = test system: MDA-MB-435
[58] = test system: NCI/ADR-RES ovarian

## Nc1nc2ccc(NCc3ccc(C(=O)NC(CCC(=O)O)C(=O)O)cc3)cc2c(=O)[nH]1 (stereo not drawn)
[1]
  TGI: > 100 µM
[2]
  TGI: > 100 µM
[3]
  TGI: > 100 µM
[4]
  TGI: > 100 µM
[5]
  TGI: > 100 µM
[6]
  TGI: > 100 µM
[7]
  TGI: > 100 µM
[8]
  TGI: > 100 µM
[9]
  TGI: > 100 µM
[10]
  TGI: > 100 µM
[11]
  TGI: > 100 µM
[12]
  TGI: > 100 µM
[13]
  TGI: > 100 µM
[14]
  TGI: > 100 µM
[15]
  TGI: > 100 µM
[16]
  TGI: > 100 µM
[17]
  TGI: > 100 µM
[18]
  TGI: > 100 µM
[19]
  TGI: > 100 µM
[20]
  TGI: > 100 µM
[21]
  TGI: > 100 µM
[22]
  TGI: > 100 µM
[23]
  TGI: > 100 µM
[24]
  TGI: > 100 µM
[25]
  TGI: > 100 µM
[26]
  TGI: > 100 µM
[27]
  TGI: > 100 µM
[28]
  TGI: > 100 µM
[29]
  TGI: > 100 µM
[30]
  TGI: > 100 µM
[31]
  TGI: > 100 µM
[32]
  TGI: > 100 µM
[33]
  TGI: > 100 µM
[34]
  TGI: > 100 µM
[35]
  TGI: > 100 µM
[36]
  TGI: > 100 µM
[37]
  TGI: > 100 µM
[38]
  TGI: > 100 µM
[39]
  TGI: > 100 µM
[40]
  TGI: > 100 µM
[41]
  TGI: > 100 µM
[42]
  TGI: > 100 µM
[43]
  TGI: > 100 µM
[44]
  TGI: > 100 µM
[45]
  TGI: > 100 µM
[46]
  TGI: > 100 µM
[47]
  TGI: > 100 µM
[48]
  TGI: 39.9 µM
[49]
  TGI: > 100 µM
[50]
  TGI: > 100 µM
[51]
  TGI: > 100 µM
[52]
  TGI: > 100 µM
[53]
  TGI: > 100 µM
[54]
  TGI: 87.5 µM
[55]
  TGI: > 100 µM
[56]
  TGI: > 100 µM
[57]
  TGI: > 100 µM
[58]
  TGI: > 100 µM
